Consider 20 compounds from USRE50082E1, “(5,6-dihydro)pyrimido[4,5-e]indolizines” (NETHERLANDS TRANSLATIONAL RESEARCH CENTER B.V., priority 2014, dated 2024).

The test system of the experiment is MOLT-4 cancer cell line. Description: Cell proliferation assay, MOLT-4 cancer cell line (ATPlite).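 Note: luminescence read-out, percent growth versus compound-free DMSO wells as maximum growth, start-of-incubation signal separating growth from cell death, IC50 from logistic curve fit.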 The experiment is classed as cell-based. The settings on record: Homo sapiens, MOLT-4; 72 hours incubation, ATPlite 1Step; read-out: IC50 MOLT-4 cell proliferation. Background: ATP-based viability assays read luminescence as a measure of living cells.
Consider `COCCOCCOCCn1nc(C)c(NC(=O)c2ccn3c2CCc2cnc(Nc4ccc(N(C)CCCN(C)C)cc4OC)nc2-3)c1C` [Example 135, 2-[4-[3-(Dimethylamino)propyl-methyl-amino]-2-methoxy-anilino]-N-[1-[2-[2-(-2-methoxyethoxy)ethoxy]ethyl]-3,5-dimethyl-pyrazol-4-yl]-5,6-dihydropyrimido[4,5-e]indolizine-7-carboxamide], for which the IC50 was less than 50 nM.

In the case of `COc1cc(N2CCNCC2)ccc1Nc1ncc2c(n1)-n1ccc(C(=O)Nc3c(C)cccc3C)c1CC2` [Example 17, N-(2,6-dimethylphenyl)-2-(2-methoxy-4-piperazin-1-yl-anilino)-5,6-dihydropyrimido[4,5-e]indolizine-7-carboxamide], the IC50 is less than 50 nM. The same measure for `CCc1cccc(CC)c1NC(=O)c1ccn2c1CCc1cnc(Nc3ccc(OC4CCN(C)C4)cc3OC)nc1-2` (centres unmarked) [Example 59, N-(2,6-diethylphenyl)-2-[2-methoxy-4-(1-methylpyrrolidin-3-yl)oxy-anilino]-5,6-dihydropyrimido[4,5-e]indolizine-7-carboxamide]: less than 50 nM. Turning to `COc1cc(N2CCOCC2)ccc1Nc1ncc2c(n1)-n1ccc(C(=O)Nc3c(C)cccc3Br)c1CC2` [Example 3, N-(2-bromo-6-methyl-phenyl)-2-(2-methoxy-4-morpholino-anilino)-5,6-dihydropyrimido[4,5-e]indolizine-7-carboxamide], the IC50 was 50 to 150 nM.

In the case of `COc1cc(OC2CCN(C)CC2)ccc1Nc1ncc2c(n1)-n1ccc(C(=O)Nc3c(C)cccc3Br)c1CC2` [Example 42, N-(2-bromo-6-methyl-phenyl)-2-[2-methoxy-4-[(1-methyl-4-piperidyl)oxy]anilino]-5,6-dihydropyrimido[4,5-e]indolizine-7-carboxamide], the IC50 was less than 50 nM.

With `CCOc1cc(C(=O)NC2CCN(C)CC2)ccc1Nc1ncc2c(n1)-n1ccc(C(=O)Nc3c(C)cccc3CC)c1CC2` [Example 14, 2-[2-Ethoxy-4-[(1-methyl-4-piperidyl)carbamoyl]anilino]-N-(2-ethyl-6-methyl-phenyl)-5,6-dihydropyrimido[4,5-e]indolizine-7-carboxamide], the IC50 is 50 to 150 nM.

For the compound `CCc1cccc(C)c1NC(=O)c1ccn2c1CCc1cnc(Nc3ccc(N4CCN(C)CC4)cc3OC)nc1-2` [Example 72, N-(2-ethyl-6-methyl-phenyl)-2-[2-methoxy-4-(4-methylpiperazin-1-yl)anilino]-5,6-dihydropyrimido[4,5-e]indolizine-7-carboxamide], the IC50 was less than 50 nM. For `COc1cc(N2CCN(C)CC2)ccc1Nc1ncc2c(n1)-n1ccc(C(=O)Nc3c(C(C)C)cccc3C(C)C)c1CC2` [Example 11, N-(2,6-diisopropylphenyl)-2-[2-methoxy-4-(4-methylpiperazin-1-yl)anilino]-5,6-dihydropyrimido[4,5-e]indolizine-7-carboxamide] the value was 50 to 150 nM; for `CCc1cccc(CC)c1NC(=O)c1ccn2c1CCc1cnc(Nc3cnc(N4CCN(C)CC4)nc3OC)nc1-2` [Example 107, N-(2,6-diethylphenyl)-2-[[4-methoxy-2-(4-methylpiperazin-1-yl)pyrimidin-5-yl]amino]-5,6-dihydropyrimido[4,5-e]indolizine-7-carboxamide], less than 50 nM; for `COCCn1nc(C)c(NC(=O)c2ccn3c2CCc2cnc(Nc4ccc(OC5CCN(C)CC5)cc4OC)nc2-3)c1C` [Example 44, N-[1-(2-methoxyethyl)-3,5-dimethyl-pyrazol-4-yl]-2-[2-methoxy-4-[(1-methyl-4-piperidyl)oxy]anilino]-5,6-dihydropyrimido[4,5-e]indolizine-7-carboxamide], 50 to 150 nM. For `COc1cc(N2CCN(C)CC2)ccc1Nc1ncc2c(n1)-n1ccc(C(=O)Nc3c(C)cccc3F)c1CC2` [Example 24, N-(2-fluoro-6-methyl-phenyl)-2-[2-methoxy-4-(4-methylpiperazin-1-yl)anilino]-5,6-dihydropyrimido[4,5-e]indolizine-7-carboxamide] the value was 50 to 150 nM.

For the compound `Cc1cc(N2CCNCC2)ccc1Nc1ncc2c(n1)-n1ccc(C(=O)Nc3c(C)cccc3Br)c1CC2` [Example 81, N-(2-bromo-6-methyl-phenyl)-2-(2-methyl-4-piperazin-1-yl-anilino)-5,6-dihydropyrimido[4,5-e]indolizine-7-carboxamide], the IC50 is less than 50 nM. For `CCc1nn(CCOC)c(CC)c1NC(=O)c1ccn2c1CCc1cnc(Nc3ccc(N4CCN(C)CC4)cc3OC)nc1-2` [Example 109, N-[3,5-diethyl-1-(2-methoxyethyl)pyrazol-4-yl]-2-[2-methoxy-4-(4-methylpiperazin-1-yl)anilino]-5,6-dihydropyrimido[4,5-e]indolizine-7-carboxamide] the value was less than 50 nM; for `COc1cc(C(=O)N2CCOCC2)ccc1Nc1ncc2c(n1)-n1ccc(C(=O)Nc3c(C)cccc3C)c1CC2` [Example 122, N-(2,6-dimethylphenyl)-2-[2-methoxy-4-(morpholine-4-carbonyl)anilino]-5,6-dihydropyrimido[4,5-e]indolizine-7-carboxamide], less than 50 nM.

For the compound `COCCNC(=O)c1ccc(Nc2ncc3c(n2)-n2ccc(C(=O)Nc4c(C)cccc4C)c2CC3)c(OC)c1` [Example 127, N-(2,6-dimethylphenyl)-2-[2-methoxy-4-(2-methoxyethylcarbamoyl)anilino]-5,6-dihydropyrimido[4,5-e]indolizine-7-carboxamide], the IC50 is less than 50 nM. The same measure for `COCCn1nc(C)c(NC(=O)c2ccn3c2CCc2cnc(Nc4ccc(N5CCNCC5)cc4OC)nc2-3)c1C` [Example 16, N-[1-(2-methoxyethyl)-3,5-dimethyl-pyrazol-4-yl]-2-(2-methoxy-4-piperazin-1-yl-anilino)-5,6-dihydropyrimido[4,5-e]indolizine-7-carboxamide]: 50 to 150 nM. For `CCc1cccc(C)c1NC(=O)c1ccn2c1CCc1cnc(Nc3ccc(N4CCN(C)CC4)cc3)nc1-2` [Example 4, N-(2-ethyl-6-methyl-phenyl)-2-[4-(4-methylpiperazin-1-yl)anilino]-5,6-dihydropyrimido[4,5-e]indolizine-7-carboxamide] the value was less than 50 nM; for `COc1cc(N2CCN(C(=O)C3CC3)CC2)ccc1Nc1ncc2c(n1)-n1ccc(C(=O)Nc3c(C)cccc3C)c1CC2` [Example 112, 2-[4-[4-(Cyclopropanecarbonyl)piperazin-1-yl]-2-methoxy-anilino]-N-(2,6-dimethylphenyl)-5,6-dihydropyrimido[4,5-e]indolizine-7-carboxamide], less than 50 nM; for `COc1cc(N2CCN(C)CC2)ccc1Nc1ncc2c(n1)-n1ccc(C(=O)Nc3c(C)cc(C)cc3C)c1CC2` [Example 22, 2-[2-Methoxy-4-(4-methylpiperazin-1-yl)anilino]-N-(2,4,6-trimethylphenyl)-5,6-dihydropyrimido[4,5-e]indolizine-7-carboxamide], less than 50 nM.

With `COCCn1nc(C)c(NC(=O)c2ccn3c2CCc2cnc(Nc4ccc(-c5c(C)nn(C)c5C)cc4OC)nc2-3)c1C` [Example 94, N-[1-(2-methoxyethyl)-3,5-dimethyl-pyrazol-4-yl]-2-[2-methoxy-4-(1,3,5-trimethylpyrazol-4-yl)anilino]-5,6-dihydropyrimido[4,5-e]indolizine-7-carboxamide], the IC50 is less than 50 nM.
